From patent US20260049077A1, “Neurotrophic Receptor Tyrosine Kinase (NTRK) Inhibitors and Methods Using Same” (Baylor College of Medicine, priority 2022, published 2026)
“And” between values parts separate entries of the source, which are not always exact repeats. Equal values may be shown once. “Also recorded” adds a separate entry of the source. Read-outs that look alike come from different tables or passages of the source.

How the values were obtained:
FLT3-ITD = conditions: cited from earlier work
NTRK2 [1] = molecular target: T1, NTRK2 (Homo sapiens (Human), UniProt Q16620); experiment: Promega NTRK2 NanoBRET live-cell target engagement; type: cell-based; conditions: live cells
T1 sequence (Q16620 32-822): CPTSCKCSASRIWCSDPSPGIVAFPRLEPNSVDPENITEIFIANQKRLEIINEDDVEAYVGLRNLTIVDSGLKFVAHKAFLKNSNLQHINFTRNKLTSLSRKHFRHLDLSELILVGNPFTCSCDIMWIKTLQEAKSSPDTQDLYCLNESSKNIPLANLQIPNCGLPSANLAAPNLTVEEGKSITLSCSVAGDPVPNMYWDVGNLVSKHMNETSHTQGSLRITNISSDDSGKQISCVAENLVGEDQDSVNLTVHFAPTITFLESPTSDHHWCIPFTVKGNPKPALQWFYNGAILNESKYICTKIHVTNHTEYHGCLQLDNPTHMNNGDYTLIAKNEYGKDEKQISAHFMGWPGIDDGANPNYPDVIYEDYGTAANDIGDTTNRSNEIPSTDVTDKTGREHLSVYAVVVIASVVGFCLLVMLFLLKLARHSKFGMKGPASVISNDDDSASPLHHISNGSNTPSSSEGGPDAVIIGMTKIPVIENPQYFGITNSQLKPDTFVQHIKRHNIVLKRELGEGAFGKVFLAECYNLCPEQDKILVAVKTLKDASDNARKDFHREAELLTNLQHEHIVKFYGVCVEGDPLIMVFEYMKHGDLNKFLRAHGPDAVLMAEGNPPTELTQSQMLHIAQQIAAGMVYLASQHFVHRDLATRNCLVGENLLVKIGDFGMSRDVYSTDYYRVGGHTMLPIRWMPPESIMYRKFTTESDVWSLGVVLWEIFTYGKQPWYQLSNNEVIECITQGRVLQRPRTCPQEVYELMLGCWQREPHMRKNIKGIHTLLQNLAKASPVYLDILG
Text: FIGS. 6A-6B show the live-cell engagement (FIG. 6A) concept and an NTRK2 example (FIG. 6B). FIG. 6A: Depiction of Promega's NanoBRET target engagement system as per their website. The system involves cell-based competitive displacement of a fluorescent NanoBRET tracer bound reversibly to a NanoLuc fusion protein. Test compounds displace the tracer dependent on their affinity for the target and […] the NanoBRET signal. FIG. 6B: Example of the use of Promega's NTRK2 NanoBRET cell-based system. Each NTRK2 compound (Cpd) was assayed in kinase assays and in cells. Multiple NTRK2 compounds enter the cell and are potent nanomolar inhibitors in these assays (% normalized to no Cpd).
As described elsewhere herein, hit compounds, including but not limited to CDD-2262, and its smaller analog, CDD-2330, were synthesized off-DNA and evaluated for NTRK2 activity.

NTRK2 [2] = molecular target: T1, NTRK2; experiment: NTRK2 inhibition (IC50); type: biochemical
NTRK1 = NTRK1 (Homo sapiens (Human), UniProt P04629); experiment: NTRK1 inhibition (IC50); conditions: read-out: NTRK1 IC50
Chain of NTRK1 (P04629 33-796): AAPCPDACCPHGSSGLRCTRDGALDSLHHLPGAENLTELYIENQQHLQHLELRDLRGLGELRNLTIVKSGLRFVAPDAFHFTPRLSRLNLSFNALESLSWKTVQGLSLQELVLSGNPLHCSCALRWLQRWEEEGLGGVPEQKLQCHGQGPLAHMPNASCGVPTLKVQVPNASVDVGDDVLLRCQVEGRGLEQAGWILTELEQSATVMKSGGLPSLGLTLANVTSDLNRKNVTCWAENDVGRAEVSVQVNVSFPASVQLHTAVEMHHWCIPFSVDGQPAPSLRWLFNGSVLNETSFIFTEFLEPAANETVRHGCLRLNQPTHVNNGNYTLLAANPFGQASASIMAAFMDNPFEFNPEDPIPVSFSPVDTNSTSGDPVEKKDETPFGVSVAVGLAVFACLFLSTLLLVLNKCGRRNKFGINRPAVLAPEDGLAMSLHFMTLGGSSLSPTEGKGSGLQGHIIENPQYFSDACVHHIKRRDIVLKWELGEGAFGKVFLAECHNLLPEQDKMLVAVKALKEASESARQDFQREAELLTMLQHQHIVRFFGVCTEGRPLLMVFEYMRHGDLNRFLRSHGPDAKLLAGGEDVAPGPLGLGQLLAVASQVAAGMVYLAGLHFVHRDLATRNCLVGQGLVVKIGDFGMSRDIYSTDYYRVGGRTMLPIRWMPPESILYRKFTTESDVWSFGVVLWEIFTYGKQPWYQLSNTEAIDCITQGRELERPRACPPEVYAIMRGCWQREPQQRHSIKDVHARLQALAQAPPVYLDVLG

NTRK3 = NTRK3 (Homo sapiens (Human), UniProt Q16288); experiment: NTRK3 inhibition (IC50); conditions: read-out: NTRK3 IC50
Chain of NTRK3 (Q16288 32-839): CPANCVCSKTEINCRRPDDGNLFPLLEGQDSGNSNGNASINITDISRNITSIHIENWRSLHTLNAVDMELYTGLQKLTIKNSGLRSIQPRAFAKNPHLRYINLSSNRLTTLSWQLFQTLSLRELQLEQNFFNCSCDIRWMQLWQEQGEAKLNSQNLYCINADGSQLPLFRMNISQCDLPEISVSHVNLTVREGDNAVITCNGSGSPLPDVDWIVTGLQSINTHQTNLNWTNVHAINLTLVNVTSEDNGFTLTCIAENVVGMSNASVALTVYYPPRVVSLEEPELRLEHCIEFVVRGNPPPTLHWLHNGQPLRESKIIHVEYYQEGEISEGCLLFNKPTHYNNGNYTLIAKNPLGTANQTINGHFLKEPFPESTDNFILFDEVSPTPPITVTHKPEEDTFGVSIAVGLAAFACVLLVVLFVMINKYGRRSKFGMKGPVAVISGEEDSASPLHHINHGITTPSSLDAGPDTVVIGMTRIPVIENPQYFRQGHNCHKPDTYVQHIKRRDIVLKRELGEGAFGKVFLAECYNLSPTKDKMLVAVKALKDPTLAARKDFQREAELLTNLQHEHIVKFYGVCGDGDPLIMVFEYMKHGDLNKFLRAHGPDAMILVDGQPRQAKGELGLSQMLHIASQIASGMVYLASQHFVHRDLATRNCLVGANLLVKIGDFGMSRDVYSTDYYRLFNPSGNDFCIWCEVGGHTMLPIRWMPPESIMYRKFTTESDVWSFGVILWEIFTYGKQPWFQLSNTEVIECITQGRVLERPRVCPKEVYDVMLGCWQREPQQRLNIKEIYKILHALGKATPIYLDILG

[3] = Metabolic stability in mouse liver microsomes (MLM)
[4] = Metabolic stability in human liver microsomes (HLM)
[5] = Plasma ALT and AST in mice after a high dose (50 mg/kg); type: in vivo, mouse
NTRKs = experiment: ThermoFisher Z'-LYTE kinase assay, NTRKs; type: biochemical; conditions: Z'-LYTE dose response; range over NTRKs
Text: (§1) FIG. 7B: Using the ThermoFisher Z'-LYTE™ screening assay, kinase specificity for the NTRK subfamily was observed.
(§2) To broadly assess the kinome-wide selectivity of CDD-2330, a KINOMEscan profiling platform was employed (FIG. 7A).

[6] = Mouse brain and testis distribution; type: in vivo; conditions: ip, mice, intraperitoneal
Description: FIGS. 9A-9B show mouse brain (FIG. 9A) and testis (FIG. 9B) distribution of CDD-2330. Mice (n=3 per timepoint) were treated intraperitoneally with CDD-2330 and brain, testis, and blood samples were collected. Samples were processed and analyzed by LC-MS.

[7] = Metabolic stability in mouse and human liver microsomes; type: in vitro ADME; conditions: mouse and human liver microsomes in vitro
human kinome = experiment: KINOMEscan kinome-wide binding profiling; conditions: 1 μM
Text: as §1, §2

MAP3K19 = MAP3K19 (Homo sapiens (Human), UniProt Q56UN5); experiment: ThermoFisher Z'-LYTE kinase assay, MAP3K19; type: biochemical
Chain of MAP3K19 (Q56UN5 whole entry): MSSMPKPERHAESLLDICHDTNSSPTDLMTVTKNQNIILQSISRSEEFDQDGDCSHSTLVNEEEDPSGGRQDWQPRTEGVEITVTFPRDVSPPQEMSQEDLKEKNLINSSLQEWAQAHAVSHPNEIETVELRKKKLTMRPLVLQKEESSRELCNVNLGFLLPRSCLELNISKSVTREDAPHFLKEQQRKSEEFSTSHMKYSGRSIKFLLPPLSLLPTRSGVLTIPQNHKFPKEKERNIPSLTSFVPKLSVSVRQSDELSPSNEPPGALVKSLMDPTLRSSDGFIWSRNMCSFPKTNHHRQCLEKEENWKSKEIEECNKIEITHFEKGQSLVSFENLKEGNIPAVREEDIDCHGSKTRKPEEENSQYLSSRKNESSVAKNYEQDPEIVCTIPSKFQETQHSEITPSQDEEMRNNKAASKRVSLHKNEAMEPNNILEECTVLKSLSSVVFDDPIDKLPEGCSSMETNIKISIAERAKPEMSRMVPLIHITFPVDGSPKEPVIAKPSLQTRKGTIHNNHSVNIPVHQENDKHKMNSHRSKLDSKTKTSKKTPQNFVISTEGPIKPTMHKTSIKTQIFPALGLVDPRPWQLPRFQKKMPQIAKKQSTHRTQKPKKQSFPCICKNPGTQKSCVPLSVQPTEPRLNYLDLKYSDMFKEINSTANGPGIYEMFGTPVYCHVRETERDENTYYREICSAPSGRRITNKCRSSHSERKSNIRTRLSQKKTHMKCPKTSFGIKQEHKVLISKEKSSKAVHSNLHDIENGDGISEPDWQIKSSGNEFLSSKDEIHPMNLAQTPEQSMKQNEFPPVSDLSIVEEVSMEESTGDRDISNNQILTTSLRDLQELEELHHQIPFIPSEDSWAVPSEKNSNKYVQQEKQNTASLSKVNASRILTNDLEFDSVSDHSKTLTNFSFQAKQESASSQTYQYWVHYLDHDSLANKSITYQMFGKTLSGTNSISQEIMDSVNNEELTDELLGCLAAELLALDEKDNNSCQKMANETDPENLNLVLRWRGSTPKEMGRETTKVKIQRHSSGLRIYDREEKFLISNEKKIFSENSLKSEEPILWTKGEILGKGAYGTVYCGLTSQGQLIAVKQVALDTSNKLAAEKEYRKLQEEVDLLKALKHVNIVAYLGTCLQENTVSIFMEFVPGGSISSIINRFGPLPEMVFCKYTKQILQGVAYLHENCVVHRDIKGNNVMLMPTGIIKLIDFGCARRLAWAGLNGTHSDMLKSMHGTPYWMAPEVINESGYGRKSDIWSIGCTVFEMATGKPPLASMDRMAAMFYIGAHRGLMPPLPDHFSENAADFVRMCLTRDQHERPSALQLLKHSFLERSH

[8] = Pharmacokinetics of orally administered CDD-2330 in mice; type: in vivo, mouse; conditions: oral 50 mg/kg
Description: CDD-2330 was dissolved in 10% DMSO+0.5% methyl cellulose at 5 mg/mL. CDD-2330 was orally delivered at 50 mg/kg to mice (n=4). Blood samples were collected at 0, 0.25, 0.5, 1, 2, 4, 6, 8, and 24 h. Samples were analyzed by LC-MS, and the concentration of CDD-2330 was quantified with a standard curve (range: 0-10 μM). CDD-3031 was administered by oral gavage at a dose of 50 mg/kg. Blood samples were collected at […], 0.167, 0.25, 0.5, 1, 2, 4, 6, 8, and 24 h.

[9] = in vivo; cited from earlier work
[10] = mouse, microsomes
[11] = human, microsomes
NTRK2 [12] = molecular target: T1, NTRK2; experiment: NTRK2 apparent inhibition constant (Ki app)
endometriotic lesions = experiment: Endometriosis mouse model, lesion efficacy; type: in vivo; conditions: endometriosis mouse model, compared to controls
Description: FIGS. 17A-17F depict the robust efficacy of the inhibitory compounds of the present disclosure as NTRK2 inhibitors for inhibition of endometriotic lesion growth in mice utilizing CDD-3132 as an example. FIG. 17A provides a schematic overview of the experiment performed. FIGS. 17B-17C provide photographs showing excised lesions with administration of a control (FIG. 17B) or CDD-3132 (10 mg/kg/day) (FIG. 17C).
(§3) In one aspect, the present disclosure provides exemplary data relating to the administration of NTRK2 inhibitors in a mouse model of endometriosis (FIG. 14). In certain embodiments, the recipient mouse is administered the NTRK2 inhibitor and/or controls on day 14 after intraperitoneal injection of endometrium of the donor mouse. In certain embodiments, the recipient mouse is sacrificed and quantitatively assessed on day 28.

[13] = Brain uptake in mice 24 hours post-administration; type: in vivo, mouse; conditions: mouse, brain, 24 h, read-out: Brain Concentration at 24 h (ng/mg)
[14] = Endometriosis mouse model, liver and kidney toxicity (organ weight, ALT, AST); type: in vivo
Description: as §3

[15] = tested on: PTGS2 mRNA in endometriotic stromal cells; experiment: PGE2-stimulated PTGS2 gene expression in endometriotic stromal cells (RT-PCR); type: cell-based; conditions: 1 μM PGE2, 6-hour period
Text: FIG. 12A: estrogen, secreted by the ovary and endometriotic lesions, signals to macrophages and nerve fibers, including production of BDNF/NT-3 and pro-inflammatory cytokines, respectively. […] Activated CREB acts on the PTGS2 promoter, creating a positive feedback mechanism that results in elevated inflammation. PGE2 signaling also stimulates PKA/PKC signaling to induce the production of BDNF and NTF3 expression. […] Gene expression of PTGS2 was quantified using quantitative real time PCR (RT-PCR).
Thus, the present disclosure provides evidence that administration of CDD-2330 results in suppression of markers associated with inflammation, and accordingly, is suitable for the treatment of endometriosis.

[16] = at 4 h; cited from earlier work
[17] = plasma, 48 h after oral 50 mg/kg CDD-2330, individual mice
[18] = group average, CDD-2737 at 10 mg/kg/day for 14 days, n-butyrate 100 mM
[19] = individual mice, CDD-2737 at 10 mg/kg/day for 14 days, n-butyrate 100 mM

For FC(F)(F)c1ccc(CNc2ccc(Cc3c[nH]c4ncc(Cl)cc34)cn2)cn1 [Pexidartinib], which IC50 (FLT3-ITD) is on record?
The IC50 was 9 nM.

Which results are given for CC(C)c1ccc(OCC(=O)N(Cc2ccn3ncc(C(N)=O)c3c2)C(C)C)cc1 [CDD-3032, 5-((N-isopropyl-2-(4-isopropylphenoxy)acetamido)methyl)pyrazolo[1,5-a]pyridine-3-carboxamide]?
cell penetration and effect in NanoBRET assays (NTRK2 [1]): able to penetrate cell membranes to induce an effect; IC50 (NTRK2 [2]): 6.1 nM; IC50 (NTRK1): 34 nM; IC50 (NTRK3): 13.7 nM; half-life [3]: 0.105 h; half-life [4]: 0.472 h

For CC(C)N(Cc1ccn2ncc(C(=O)O)c2c1)C(=O)Nc1ccc(OC(F)(F)F)cc1 [CDD-2330, 5-((1-isopropyl-3-(4-(trifluoromethoxy)phenyl)ureido)methyl)pyrazolo[1,5-a]pyridine-3-carboxylic acid], which “potential liver and other tissue toxicity” value ([5]; high dose, 50 mg/kg) is on record?
The value was “minimal effects”.

And the ALT [5, 17]?
Its ALT is 13.97 U/L and 26.17 U/L and 13.44 U/L and 18.74 U/L.

And the AST [5, 17]?
The AST was 19.45 U/L and 18.92 U/L and 26.17 U/L and 13.26 U/L.

What about the “cell penetration and effect in NanoBRET assays” value (“cell penetration and effect” below) (NTRK2 [1]) of the same compound?
Its value is “able to penetrate cell membranes to induce an effect”.

What about the IC50 (NTRKs) of the same compound?
Its IC50 is 1.2 to 3.8 nM.

And the Kp at 4 h ([6]; brain, read-out: Brain:Plasma)?
The Kp at 4 h was 0.31.

And the Kp at 4 h ([6]; testis, read-out: Testis:Plasma)?
The Kp at 4 h was 0.31.

What about the half-life [7] of the same compound?
Its half-life is over 25 h.

What about the “kinome-wide selectivity (KINOMEscan)” value (human kinome) of the same compound?
The value was “highly specific for NTRK1, NTRK2, and NTRK3; also recorded: high specificity for NTRKs, with MAP3K19 as the only possible off-target”.

And the IC50 (NTRK2 [2])?
Its IC50 is 3.5 nM.

And the IC50 (NTRK1)?
Its IC50 is 3.8 nM.

What about the “selectivity over MAP3K19” value (MAP3K19; NTRKs vs MAP3K19, Z'-LYTE) of the same compound?
Its value is over 100 fold.

What about the IC50 (MAP3K19; Z'-LYTE dose response) of the same compound?
The IC50 was 401 nM.

And the IC50 (NTRK3)?
The IC50 was 1.2 nM.

And the “blood level after oral administration” value [8]?
The value was “rapid disappearance in the blood”.

And the half-life [3]?
Its half-life is 27.2 h.

What about the half-life [4] of the same compound?
The half-life was 25.6 h.

With O=C(Nc1cnn2ccc(N3CCC[C@@H]3c3cc(F)ccc3F)nc12)N1CC[C@H](O)C1 [larotrectinib] as the compound, how does the blood-brain barrier crossing [9] read?
Its blood-brain barrier crossing is “cross the blood-brain barrier”.

With “1-cyclobutyl-1-(pyrazolo[1,5-a]pyridin-5-ylmethyl)-3-(4-(trifluoromethoxy)phenyl)urea [CDD-2219]” as the compound, how does the “cell penetration and effect” value (NTRK2 [1]) read?
Its value is “able to penetrate cell membranes to induce an effect”.

And the “MLM t1/2” value [10]?
Its value is 0.47 h.

And the “HLM t1/2” value [11]?
Its value is 0.913 h.

What about the IC50 (NTRK2 [2]) of the same compound?
The IC50 was 13 nM.

What about the Ki (NTRK2 [12]; read-out: NTRK2 Ki^app, apparent inhibition constant) of the same compound?
The Ki was 21 ± 7 nM.

For CC(C)N(Cc1ccn2ncc(C(N)=O)c2c1)C(=O)Nc1ccc(OC(F)(F)F)cc1 [CDD-2737, 5-((1-isopropyl-3-(4-(trifluoromethoxy)phenyl)ureido)methyl)pyrazolo[1,5-a]pyridine-3-carboxamide], which “number and size of lesions” value (endometriotic lesions) is on record?
Its value is “decreases the number of lesions and the size of lesions; also recorded: decreased number of lesions and lesions of diminished size”.

What about the “cell penetration and effect” value (NTRK2 [1]) of the same compound?
Its value is “able to penetrate cell membranes to induce an effect”.

And the concentration at 24 h [13]?
Its concentration at 24 h is 40 ng/g.

And the IC50 (NTRK2 [2])?
Its IC50 is 2.3 nM.

What about the IC50 (NTRK1) of the same compound?
Its IC50 is 6.1 nM.

What about the IC50 (NTRK3) of the same compound?
The IC50 was 3.1 nM.

And the half-life [3]?
The half-life was 2.6 h.

And the “gross and serum effects on the liver and kidney” value ([14]; endometriosis mouse model)?
Its value is “no gross or serum effects; also recorded: no gross effects”.

What about the “ALT (U/L), Average” value [14, 18] of the same compound?
Its value is 15.2 U/L.

What about the “AST (U/L), Average” value [14, 18] of the same compound?
Its value is 31.3 U/L.

What about the “ALT (U/L)” value [14, 19] of the same compound?
The value was 13.79 U/L and 13.61 U/L and 10.25 U/L and 23.16 U/L.

What about the “AST (U/L)” value [14, 19] of the same compound?
The value was 28.11 U/L and 47.21 U/L and 27.58 U/L and 22.28 U/L.

What about the half-life [4] of the same compound?
Its half-life is 3.17 h.

What does the source list for O=C(O)c1cnn2ccc(CN(C(=O)Nc3ccc(OC(F)(F)F)cc3)C3CCC3)cc12 [CDD-2262, 5-((1-cyclobutyl-3-(4-(trifluoromethoxy)phenyl)ureido)methyl)pyrazolo[1,5-a]pyridine-3-carboxylic acid]?
concentration at which PTGS2 mRNA is statistically suppressed [15]: > 100 nM; cell penetration and effect in NanoBRET assays (NTRK2 [1]): able to penetrate cell membranes to induce an effect; half-life [7]: > 7 h; IC50 (NTRK2 [2]): 32 nM; Ki (NTRK2 [12]): 17 ± 10 nM; half-life [3]: 8.87 h; half-life [4]: 7.37 h

Which blood-brain barrier crossing [9] does the source give for CN1CCN(c2ccc(C(=O)Nc3n[nH]c4ccc(Cc5cc(F)cc(F)c5)cc34)c(NC3CCOCC3)c2)CC1 [Entrectinib, N-(5-(3,5-difluorobenzyl)-1H-indazol-3-yl)-4-(4-methylpiperazin-1-yl)-2-((tetrahydro-2H-pyran-4-yl)amino)benzamide] here?
The blood-brain barrier crossing was “cross the blood-brain barrier”.

What does the source list for CCOc1ccc(CC(=O)N(Cc2ccn3nccc3c2)[C@H](C)c2ccccc2)cc1 [CDD-2222, (R)-2-(4-ethoxyphenyl)-N-(1-phenylethyl)-N-(pyrazolo[1,5-a]pyridin-5-ylmethyl)acetamide]?
IC50 (NTRK2 [2]): 43 nM; Ki (NTRK2 [12]): 34 ± 10 nM

With CNCC[C@@H](Oc1ccccc1C)c1ccccc1 [atomoxetine] as the compound, how does the “Brain:Plasma (comparator antidepressant drug)” value [16] read?
The value was 20.
